Measurements as given in patent EP0199262A2, “Fluorinated benzyl triazole compounds” (CIBA-GEIGY AG, priority 1985, dated 1986).

What was measured:
[1] = system: durch Elektroschock ausgelöste Konvulsionen; assay: Protection against electroshock-induced convulsions, mouse; type: in vivo, Maus; conditions: po, read-out: effektive Dosis ED50
Method: (§1) Die neuen Verbindungen besitzen wertvolle pharmakologische Eigenschaften, insbesondere eine ausgeprägte antikonvulsive Wirksamkeit, die sich beispielsweise an der Maus anhand eines deutlichen Metrazol-Antagonismus im Dosisbereicn von etwa 30 bis 300 mg/kg p.o. sowie an Maus und Ratte anhand einer ausgeprägten Schutzwirkung gegen durch Elektroschock ausgelöste Konvulsionen im Dosisbereich von etwa 1 bis etwa 50, in den meisten Fällen von etwa 1 bis etwa 25 mg/kg p.o. zeigen lässt. In diesem Modell wurden beispielsweise die folgenden Werte für die effektive Dosis ED50 in mg/kg p.o. erhalten (1 h Vorapplikation): • 1-(2,6-Difluorbenzyl)-1 H-1,2,3-triazof-4-carboxamid: 17 (Maus bzw. 8 (Ratte); • 1-(o-Fluorbenzyl)-1H-1,2,34dazol-4-carboxamid: 17 (Maus, Ratte); • 1-(2,6-Difluorbenzyl)-1 H-1,2,3-triazol-4,5-dicarboxamid: 4 (Maus, Ratte); • 1-(6-Chlor-2-fluor-phenyl)-1 H-1,2,3-triazol-4,5-dicarboxamid: 7 (Maus) bzw. 10 (Ratte), • 1-(o-Fluorphenyl)-1H-1,2,3-triazof-4,5-dicarboxamid: 6 (Maus) bzw. 10 (Ratte); • 1-(6-Chlor-2-fluar-phenyl)-1H-1,2,3-triazol-4-carboxamid: 11 (Maus); 1-(2,5-Difluorbenzyl)-1H-1,2,3-triazol-4,5-dicarboxamid: 6 (Maus).
(§2) Die erfindungsgemäss bereitgestellten fluorierten 1-(a-Phenylalkyl)-1H-1,2,3-triazolverbindungen der Formel (I) weisen ihren als antikonvulsiv wirksam bekannten Chloranalogen gegenüber den Vorteil einer verbesserten Wirksamkeit auf. So ergaben sich in obigem Modell z.B. folgende Ed50-Werte: • 1-(o-Chlorbenzyl)-1 H-1,2,3-triazol-4-carboxamid: 26 (Maus) bzw. 25 (Ratte) und • 1-(o-Chlorbenzyl)-1 H-1,2,3-triazol-4,5-dicarboxamid: 40 (Maus) bzw. 43 (Ratte).

[2] = system: durch Elektroschock ausgelöste Konvulsionen; assay: Protection against electroshock-induced convulsions, rat; type: in vivo, Ratte; conditions: po, read-out: effektive Dosis ED50
Method: as §1, §2

[3] = Maus, electroshock, p.o., 1 h Vorapplikation
[4] = Ratte, electroshock, p.o., 1 h Vorapplikation

| SMILES | ED50 [1, 3] | ED50 [2, 4] | ED50 ([1]; 1 h) | ED50 ([2]; 1 h) |
| --- | --- | --- | --- | --- |
| NC(=O)c1nnn(Cc2cc(F)ccc2F)c1C(N)=O [1-(2,5-Difluorbenzyl)-1H-1,2,3-triazol-4,5-dicarboxamid] | 6 mg/kg |  |  |  |
| NC(=O)c1cn(Cc2c(F)cccc2F)nn1 [1-(2,6-Difluorbenzyl)-1 H-1,2,3-triazol-4-carboxamid] | 17 mg/kg | 8 mg/kg |  |  |
| NC(=O)c1nnn(Cc2c(F)cccc2F)c1C(N)=O [1-(2,6-Difluorbenzyl)-1H-1,2,3-triazol-4,5-dicarboxamid] | 4 mg/kg | 4 mg/kg |  |  |
| NC(=O)c1nnn(Cc2c(F)cccc2Cl)c1C(N)=O [1-(6-Chlor-2-fluor-benzyl)-1 H-1,2,3-triazol-4,5-dicarboxamid] | 7 mg/kg | 10 mg/kg |  |  |
| NC(=O)c1cn(Cc2c(F)cccc2Cl)nn1 [1-(6-Chlor-2-fluor-benzyl)-1H-1,2,3-triazol-4-carboxamid] |  |  | 11 mg/kg |  |
| NC(=O)c1nnn(Cc2ccccc2Cl)c1C(N)=O [1-(o-Chlorbenzyl)-1 H-1,2,3-triazol-4,5-dicarboxamid, reference compound] | 40 mg/kg | 43 mg/kg |  |  |
| NC(=O)c1cn(Cc2ccccc2Cl)nn1 [1-(o-Chlorbenzyl)-1 H-1,2,3-triazol-4-carboxamid, reference compound] |  |  | 26 mg/kg | 25 mg/kg |
| NC(=O)c1nnn(Cc2ccccc2F)c1C(N)=O [1-(o-Fluorbenzyl)-1 H-1,2,3,-triazol-4,5-dicarboxamid] | 6 mg/kg | 10 mg/kg |  |  |
| NC(=O)c1cn(Cc2ccccc2F)nn1 [1-(o-Fluorbenzyl)-1 H-1,2,3-triazol-4-carboxamid] |  |  | 17 mg/kg | 17 mg/kg |
